Assay results published in patent US11590116B2 (THERAVANCE BIOPHARMA R&D IP, LLC, priority 2019, dated 2023).

Experiments:
[1] = test system: TGF-β-stimulated SMAD3 phosphorylation in BEAS-2B cells; assay: Cellular ALK5 potency assay, inhibition of TGF-β stimulated pSMAD3 formation in BEAS-2B cells; type: cell-based; details: Homo sapiens; inhibition of TGF-β stimulated pSMAD3 formation, BEAS-2B cells; read-out: BEAS2B pIC50 (converted)
Summary of the method: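 BEAS-2B human lung epithelial cells pre-treated 1 h at 37° C with compound in HBSS/25 mM HEPES/1% BSA, then stimulated 30 min with 10 ng/mL TGF-β (final). Lysates assayed for pSMAD3 by AlphaLISA; pIC50 from dose-dependent change versus stimulated untreated cells.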

[2] = molecular target: T1, recombinant human ALK5 (TGF-βR1) protein (Homo sapiens, UniProt P36897); assay: Biochemical ALK5 (TGF-βR1) assay to measure pKi (LANCE Ultra ULight kinase assay); details: apparent pKi from pIC50 by Cheng-Prusoff, read-out: ALK5 pKi (converted)
T1 construct: purchased Life Technologies PR9075A
T1 sequence (P36897 34-503): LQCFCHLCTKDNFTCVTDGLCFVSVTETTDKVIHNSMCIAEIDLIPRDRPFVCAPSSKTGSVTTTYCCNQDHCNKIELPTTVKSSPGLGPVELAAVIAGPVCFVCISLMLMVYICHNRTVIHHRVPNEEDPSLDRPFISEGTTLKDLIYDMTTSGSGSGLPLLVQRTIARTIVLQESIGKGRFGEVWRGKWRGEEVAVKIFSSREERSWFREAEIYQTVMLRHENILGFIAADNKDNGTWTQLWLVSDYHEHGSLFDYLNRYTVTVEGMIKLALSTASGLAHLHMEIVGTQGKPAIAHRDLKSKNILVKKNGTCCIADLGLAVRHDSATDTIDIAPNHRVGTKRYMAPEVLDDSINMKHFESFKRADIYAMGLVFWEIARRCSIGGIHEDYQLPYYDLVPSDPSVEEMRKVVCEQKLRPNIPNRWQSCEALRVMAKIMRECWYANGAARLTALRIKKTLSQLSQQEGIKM
Summary of the method: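 Compounds (10 μM to 25 pM) were preincubated 60 min at room temperature with enzyme, then reactions were started with ATP (125 μM stock, 5× final) and run 60 min at 37 °C. EDTA-containing Eu-anti-phospho-Topo IIα (Thr1342) antibody stopped the reaction; TR-FRET read at 665 nm. pIC50 from 4-parameter fit, converted to pKi via Cheng-Prusoff.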

| Compound | Ki [2] [nM] | IC50 [1] [nM] |
| --- | --- | --- |
| Cc1cccc(-c2n[nH]cc2-c2ccc3ncc(N4CC(N)C4)cc3n2)n1 [Compound 193, 1-[6-[3-(6-methyl-2-pyridyl)-1H-pyrazol-4-yl]-1,5-naphthyridin-3-yl]azetidin-3-amine] | 0.0398 to 0.316 | 25.1 to 158 |
| Cc1cccc(-c2[nH]cnc2-c2ccc3ncc(C4=CCC(C(=O)O[C@@H]5CCNC5)CC4)cc3c2)n1 (stereo partly drawn) [Compound 49, [(3R)-pyrrolidin-3-yl] 4-[6-[5-(6-methyl-2-pyridyl)-1H-imidazol-4-yl]-3-quinolyl]cyclohex-3-ene-1-carboxylate] | 0.0398 to 0.316 | 25.1 to 158 |
| Cc1cccc(-c2n[nH]cc2-c2ccc3ncc(N4CC(N(C)C)C4)cc3n2)n1 [Compound 368, N,N-dimethyl-1-[6-[3-(6-methyl-2-pyridyl)-1H-pyrazol-4-yl]-1,5-naphthyridin-3-yl]azetidin-3-amine] | < 0.0316 | 25.1 to 158 |
| Cc1cccc(-c2[nH]cnc2-c2ccc3ncc(-c4cccc(NC5CCNCC5)n4)cc3c2)n1 [Compound 450, 6-[6-[5-(6-methyl-2-pyridyl)-1H-imidazol-4-yl]-3-quinolyl]-N-(4-piperidyl)pyridin-2-amine] | 0.0398 to 0.316 | 25.1 to 158 |
| Cc1cccc(-c2[nH]cnc2-c2ccc3ncc(N4CCC(NC(=O)[C@@H]5CCCN5)CC4)cc3c2)n1 [Compound 388, (2S)-N-[1-[6-[5-(6-methyl-2-pyridyl)-1H-imidazol-4-yl]-3-quinolyl]-4-piperidyl]pyrrolidine-2-carboxamide] | 0.0398 to 0.316 | 200 to 1260 |
| Cc1cccc(-c2[nH]cnc2-c2ccc3ncc(NCCN4CCCC4(C)C)cc3c2)n1 [Compound 56, N-[2-(2,2-dimethylpyrrolidin-1-yl)ethyl]-6-[5-(6-methyl-2-pyridyl)-1H-imidazol-4-yl]quinolin-3-amine] | < 0.0316 | 25.1 to 158 |
| Cc1cccc(-c2n[nH]cc2-c2ccc3ncc(N4CCN[C@H](C)C4)cc3n2)n1 [Compound 249, 7-[(3R)-3-methylpiperazin-1-yl]-2-[3-(6-methyl-2-pyridyl)-1H-pyrazol-4-yl]-1,5-naphthyridine] | 0.0398 to 0.316 | 25.1 to 158 |
| Cc1cccc(-c2n[nH]cc2-c2ccc3ncc(N4CCNC(CO)C4)cc3n2)n1 (stereo not shown) [Compound 66, [4-[6-[3-(6-methyl-2-pyridyl)-1H-pyrazol-4-yl]-1,5-naphthyridin-3-yl]piperazin-2-yl]methanol] | 0.0398 to 0.316 | 25.1 to 158 |
| Cc1cccc(-c2n[nH]cc2-c2ccc3ncc(-c4cccn(C)c4=O)cc3n2)n1 [Compound 12, 1-methyl-3-[6-[3-(6-methyl-2-pyridyl)-1H-pyrazol-4-yl]-1,5-naphthyridin-3-yl]pyridin-2-one] | < 0.0316 | < 20 |
| Cc1cccc(-c2n[nH]cc2-c2ccc3ncc(-c4ncn5c4NCC5)cc3n2)n1 [Compound 445, 7-(2,3-dihydro-1H-imidazo[1,5-a]imidazol-7-yl)-2-[3-(6-methyl-2-pyridyl)-1H-pyrazol-4-yl]-1,5-naphthyridine] | 0.0398 to 0.316 | 25.1 to 158 |
| Cc1nc(-c2n[nH]cc2-c2ccc3ncc(N4CCC(N)C4)cc3n2)ccc1F (stereo not shown) [Compound 334, 1-[6-[3-(5-fluoro-6-methyl-2-pyridyl)-1H-pyrazol-4-yl]-1,5-naphthyridin-3-yl]pyrrolidin-3-amine] | 0.0398 to 0.316 | 25.1 to 158 |
| COc1[nH]nc(-c2cccc(C)n2)c1-c1ccc2ncc(NCCN3CCOCC3)cc2n1 [Compound 87, 6-[5-methoxy-3-(6-methyl-2-pyridyl)-1H-pyrazol-4-yl]-N-(2-morpholinoethyl)-1,5-naphthyridin-3-amine] | 0.398 to 3.16 | 200 to 1260 |
| COCC1CN(c2cnc3ccc(-c4c[nH]nc4-c4cccc(C)n4)nc3c2)CCN1C (racemic) [Compound 354, 2-[3-(6-methyl-2-pyridyl)-1H-pyrazol-4-yl]-7-[rac-(3R)-3-(methoxymethyl)-4-methyl-piperazin-1-yl]-1,5-naphthyridine] | < 0.0316 | 25.1 to 158 |
| Cc1nc(-c2[nH]cnc2-c2ccc3ncc(-c4cnn(C5CCCNC5)c4)cc3n2)ccc1F (stereo not shown) [Compound 413, 2-[5-(5-fluoro-6-methyl-2-pyridyl)-1H-imidazol-4-yl]-7-[1-(3-piperidyl)pyrazol-4-yl]-1,5-naphthyridine] | 0.0398 to 0.316 | 25.1 to 158 |

More lines, main results first:

| Ki [2] [nM] | Compound | IC50 [1] [nM] |
| --- | --- | --- |
| 0.0398 to 0.316 | Cc1cccc(-c2[nH]ncc2-c2ccc3ncc(C(=O)OC4CCN(C)C4)cc3n2)n1 (stereo not shown) [Compound 523, (1-methylpyrrolidin-3-yl) 6-[5-(6-methyl-2-pyridyl)-1H-pyrazol-4-yl]-1,5-naphthyridine-3-carboxylate] | 25.1 to 158 |
| 0.0398 to 0.316 | CN[C@H]1CC[C@H](OC(=O)c2cnc3ccc(-c4cn[nH]c4-c4cccc(C)n4)cc3c2)CC1 [Compound 1221, [4-(methylamino)cyclohexyl] 6-[5-(6-methyl-2-pyridyl)-1H-pyrazol-4-yl]quinoline-3-carboxylate] | < 20 |
| 0.0398 to 0.316 | Cc1cccc(-c2[nH]cnc2-c2ccc3ncc(NCCC4CCNCC4)cc3c2)n1 [Compound 496, 6-[5-(6-methyl-2-pyridyl)-1H-imidazol-4-yl]-N-[2-(4-piperidyl)ethyl]quinolin-3-amine] | 25.1 to 158 |
| 0.0398 to 0.316 | Cc1cccc(-c2n[nH]cc2-c2ccc3ncc(Nc4ccc(N5CCN(C)CC5)cc4)cc3c2)n1 [Compound 664, N-(4-(4-methylpiperazin-1-yl)phenyl)-6-(3-(6-methylpyridin-2-yl)-1H-pyrazol-4-yl)quinolin-3-amine] | 25.1 to 158 |
| < 0.0316 | Cc1cccc(-c2[nH]cnc2-c2ccc3ncc(-c4csc(C(=O)OC[C@@H]5CCCN5)c4)cc3c2)n1 [Compound 1183, [(2S)-pyrrolidin-2-yl]methyl 4-[6-[5-(6-methyl-2-pyridyl)-1H-imidazol-4-yl]-3-quinolyl]thiophene-2-carboxylate] | 25.1 to 158 |
| 0.0398 to 0.316 | COC(=O)[C@@H]1CCN(CCNc2cnc3ccc(-c4nc[nH]c4-c4cccc(C)n4)cc3c2)C1 [Compound 729, methyl (3R)-1-[2-[[6-[5-(6-methyl-2-pyridyl)-1H-imidazol-4-yl]-3-quinolyl]amino]ethyl]pyrrolidine-3-carboxylate] | 25.1 to 158 |
| 0.0398 to 0.316 | Cc1cccc(-c2n[nH]cc2-c2ccc3ncc(N4CCCN(C5CCNCC5)CC4)cc3n2)n1 [Compound 638, 2-[3-(6-methyl-2-pyridyl)-1H-pyrazol-4-yl]-7-[4-(4-piperidyl)-1,4-diazepan-1-yl]-1,5-naphthyridine] | 1580 to 10000 |
| 0.398 to 3.16 | Cc1cccc(-c2[nH]cnc2-c2ccc3nccc(C(=O)O[C@H]4C[C@@H](N)C4)c3c2)n1 [Compound 1042, (3-aminocyclobutyl) 6-[5-(6-methyl-2-pyridyl)-1H-imidazol-4-yl]quinoline-4-carboxylate] | 25.1 to 158 |
| < 0.0316 | Cc1cccc(-c2[nH]ncc2-c2ccc3ncc(C(=O)OCCC4CNC4)cc3c2)n1 [Compound 1204, 2-(azetidin-3-yl)ethyl 6-[5-(6-methyl-2-pyridyl)-1H-pyrazol-4-yl]quinoline-3-carboxylate] | 25.1 to 158 |
| 0.398 to 3.16 | CCOC(=O)CN1CCN(Cc2ccnc3ccc(-c4c[nH]nc4-c4cccc(C)n4)nc23)CC1 [Compound 821, ethyl 2-[4-[[6-[3-(6-methyl-2-pyridyl)-1H-pyrazol-4-yl]-1,5-naphthyridin-4-yl]methyl]piperazin-1-yl]acetate] | 25.1 to 158 |
| 0.0398 to 0.316 | Cc1cccc(-c2n[nH]cc2-c2ccc3ncc(-c4nnn5c4NCCC5)cc3n2)n1 [Compound 550, 2-[3-(6-methyl-2-pyridyl)-1H-pyrazol-4-yl]-7-(4,5,6,7-tetrahydrotriazolo[1,5-a]pyrimidin-3-yl)-1,5-naphthyridine] | 25.1 to 158 |
| 0.0398 to 0.316 | COC(=O)c1ccnc2ccc(-c3cn[nH]c3-c3cccc(C)n3)cc12 [Compound 1061, methyl 6-[5-(6-methyl-2-pyridyl)-1H-pyrazol-4-yl]quinoline-4-carboxylate] | 25.1 to 158 |
| < 0.0316 | Cc1cccc(-c2[nH]cnc2-c2ccc3ncc(C4=CCCC(N)C4)cc3c2)n1 (stereo not shown) [Compound 531, 3-[6-[5-(6-methyl-2-pyridyl)-1H-imidazol-4-yl]-3-quinolyl]cyclohex-3-en-1-amine] | < 20 |
| 0.398 to 3.16 | COC(=O)c1coc(-c2ccnc3ccc(-c4c[nH]nc4-c4cccc(C)n4)nc23)n1 [Compound 817, methyl 2-[6-[3-(6-methyl-2-pyridyl)-1H-pyrazol-4-yl]-1,5-naphthyridin-4-yl]oxazole-4-carboxylate] | 200 to 1260 |
| 0.398 to 3.16 | Cc1cccc(-c2n[nH]cc2-c2ccc3nccc(N4CCNCC4)c3c2)n1 [Compound 868, 6-[3-(6-methyl-2-pyridyl)-1H-pyrazol-4-yl]-4-piperazin-1-yl-quinoline] | 25.1 to 158 |
